Legend:
Assay type in all cases: in vivo
[1] = system: nutsedge, yellow (yellow nutsedge, Cyperus esculentus); assay: Test C preemergence, plant response rating; conditions: Cyperus, pre-emergence, Preemergence
Outline: (§1)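 After sowing in loam–sand blend or silt loam, pots were sprayed preemergence; separately grown 1- to 4-leaf plants were sprayed postemergence. Following 13 to 15 d under greenhouse conditions, injury was rated visually on a 0 to 100 scale.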

[2] = system: morningglory (Ipomoea coccinea); assay: Test C preemergence, plant response rating; conditions: Ipomoea, pre-emergence, Preemergence
Outline: as §1

[3] = system: velvetleaf (Abutilon theophrasti); assay: Test C preemergence, plant response rating; conditions: Abutilon theophrasti, pre-emergence, Preemergence
Outline: as §1

[4] = system: waterhemp (common waterhemp, Amaranthus rudis); assay: Test C preemergence, plant response rating; conditions: Amaranthus tuberculatus, pre-emergence, Preemergence
Outline: as §1

[5] = system: wheat (winter wheat, Triticum aestivum); assay: Test C preemergence, plant response rating; conditions: Triticum aestivum, pre-emergence, Preemergence
Outline: as §1

[6] = system: lambsquarters (Chenopodium album); assay: Test C preemergence, plant response rating; conditions: Chenopodium album, pre-emergence, Preemergence
Outline: as §1

[7] = system: giant foxtail (Setaria faberii); assay: Test A postemergence, visual injury rating; conditions: Setaria faberi, post-emergence, 240 h, 0 is no effect, 100 is complete control, read-out: Foxtail, Giant plant response rating (0 to 100 scale)
Outline: (§2)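 Pre- and postemergence greenhouse screen. Soil: loam + sand. Spray carrier: solvent mixture, non-phytotoxic, with surfactant. Post timing at 1–2 leaves, height 2–10 cm. Readout: visual injury on a 0–100 scale roughly 10 days after application, untreated plants as reference.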

[8] = system: kochia (Kochia scoparia); assay: Test A postemergence, visual injury rating; conditions: Bassia scoparia, post-emergence, 240 h, 0 is no effect, 100 is complete control, read-out: Kochia plant response rating (0 to 100 scale)
Outline: as §2

[9] = system: corn (Zea mays); assay: Test A postemergence, visual injury rating; conditions: Zea mays, post-emergence, 240 h, 0 is no effect, 100 is complete control, read-out: Corn plant response rating (0 to 100 scale)
Outline: as §2

[10] = system: barnyardgrass (Echinochloa crus-galli); assay: Test A postemergence, visual injury rating; conditions: Echinochloa crus-galli, post-emergence, 240 h, 0 is no effect, 100 is complete control, read-out: Barnyardgrass plant response rating (0 to 100 scale)
Outline: as §2

[11] = system: galium (catchweed bedstraw, Galium aparine); assay: Test A postemergence, visual injury rating; conditions: Galium, post-emergence, 240 h, 0 is no effect, 100 is complete control, read-out: Galium plant response rating (0 to 100 scale)
Outline: as §2

[12] = system: pigweed (Amaranthus retroflexus); assay: Test A postemergence, visual injury rating; conditions: Amaranthus retroflexus, post-emergence, 240 h, 0 is no effect, 100 is complete control, read-out: Pigweed plant response rating (0 to 100 scale)
Outline: as §2

[13] = system: Italian ryegrass (Lolium multiflorum); assay: Test A postemergence, visual injury rating; conditions: Lolium multiflorum, post-emergence, 240 h, 0 is no effect, 100 is complete control, read-out: Ryegrass, Italian plant response rating (0 to 100 scale)
Outline: as §2

[14] = system: blackgrass (Alopecurus myosuroides); assay: Test A postemergence, visual injury rating; conditions: Alopecurus myosuroides, post-emergence, 240 h, 0 is no effect, 100 is complete control, read-out: Blackgrass plant response rating (0 to 100 scale)
Outline: as §2

[15] = system: wheat (Triticum aestivum); assay: Test A postemergence, visual injury rating; conditions: Triticum aestivum, post-emergence, 240 h, 0 is no effect, 100 is complete control, read-out: Wheat plant response rating (0 to 100 scale)
Outline: as §2

[16] = system: ragweed (common ragweed, Ambrosia elatior); assay: Test A postemergence, visual injury rating; conditions: Ambrosia artemisiifolia, post-emergence, 240 h, 0 is no effect, 100 is complete control, read-out: Ragweed plant response rating (0 to 100 scale)
Outline: as §2

[17] = system: crabgrass, large (large crabgrass, Digitaria sanguinalis); assay: Test C postemergence, plant response rating; conditions: Digitaria sanguinalis, post-emergence
Outline: as §1

[18] = system: barnyardgrass (Echinochloa crus-galli); assay: Test C postemergence, plant response rating; conditions: Echinochloa crus-galli, post-emergence
Outline: as §1

[19] = system: ryegrass, Italian (Italian ryegrass, Lolium multiflorum); assay: Test C postemergence, plant response rating; conditions: Lolium multiflorum, post-emergence
Outline: as §1

[20] = 62 g ai/ha, scale 0 to 100 (0 no effect, 100 complete control)
[21] = 125 g ai/ha, scale 0 to 100 (0 no effect, 100 complete control)

Compound `CC(CC(F)(F)F)OC(=O)c1c(Br)cccc1Oc1ncc(Cl)cn1` (centres unmarked) [Compound 16, 3,3,3-trifluoro-1-methylpropyl 2-bromo-6-[(5-chloro-2-pyrimidinyl)oxy]benzoate] has a pest or weed control at 125 g/ha ([1]; 125 g ai/ha, scale of 0 to 100) of 0%, a pest or weed control at 16 g/ha ([1]; 16 g ai/ha, scale 0 to 100) of 0% and a pest or weed control at 31 g/ha ([1]; 31 g ai/ha, scale 0 to 100) of 0%. The pest or weed control at 62 g/ha ([1]; 62 g ai/ha, scale 0 to 100) was 0%, the pest or weed control at 125 g/ha ([2]; 125 g ai/ha, scale of 0 to 100) was 25% and the pest or weed control at 16 g/ha ([2]; 16 g ai/ha, scale 0 to 100) was 10%. It also gave a pest or weed control at 31 g/ha ([2]; 31 g ai/ha, scale 0 to 100) of 0%, a pest or weed control at 62 g/ha ([2]; 62 g ai/ha, scale 0 to 100) of 25% and a pest or weed control at 125 g/ha ([3]; 125 g ai/ha, scale of 0 to 100) of 75%. For the same compound, the pest or weed control at 16 g/ha ([3]; 16 g ai/ha, scale 0 to 100) was 0%, the pest or weed control at 31 g/ha ([3]; 31 g ai/ha, scale 0 to 100) was 5% and the pest or weed control at 62 g/ha ([3]; 62 g ai/ha, scale 0 to 100) was 50%. The pest or weed control at 125 g/ha ([4]; 125 g ai/ha, scale of 0 to 100) was 100%, the pest or weed control at 16 g/ha ([4]; 16 g ai/ha, scale 0 to 100) was 10% and the pest or weed control at 31 g/ha ([4]; 31 g ai/ha, scale 0 to 100) was 60%. The pest or weed control at 62 g/ha ([4]; 62 g ai/ha, scale 0 to 100) was 85%, the plant injury at 125 g/ha ([5]; 125 g ai/ha, scale of 0 to 100) was 0% and the plant injury at 16 g/ha ([5]; 16 g ai/ha, scale 0 to 100) was 0%. It also gave a plant injury at 31 g/ha ([5]; 31 g ai/ha, scale 0 to 100) of 0%, a plant injury at 62 g/ha ([5]; 62 g ai/ha, scale 0 to 100) of 0% and a pest or weed control at 125 g/ha ([6]; 125 g ai/ha, scale of 0 to 100) of 50%. The pest or weed control at 16 g/ha ([6]; 16 g ai/ha, scale 0 to 100) was 0%, the pest or weed control at 31 g/ha ([6]; 31 g ai/ha, scale 0 to 100) was 20% and the pest or weed control at 62 g/ha ([6]; 62 g ai/ha, scale 0 to 100) was 20%. For the same compound, the pest or weed control at 125 g/ha ([7]; 125 g ai/ha) was 20%, the pest or weed control at 500 g/ha ([7]; 500 g ai/ha) was 90% and the pest or weed control at 125 g/ha ([8]; 125 g ai/ha) was 80%. For the same compound, the pest or weed control at 500 g/ha ([8]; 500 g ai/ha) was 100%, the plant injury at 125 g/ha ([9]; 125 g ai/ha) was 20% and the plant injury at 500 g/ha ([9]; 500 g ai/ha) was 60%. The pest or weed control at 125 g/ha ([10]; 125 g ai/ha) was 10%, the pest or weed control at 500 g/ha ([10]; 500 g ai/ha) was 90% and the pest or weed control at 125 g/ha ([11]; 125 g ai/ha) was 90%. For the same compound, the pest or weed control at 500 g/ha ([11]; 500 g ai/ha) was 100%, the pest or weed control at 125 g/ha ([12]; 125 g ai/ha) was 90% and the pest or weed control at 500 g/ha ([12]; 500 g ai/ha) was 100%. It also gave a pest or weed control at 125 g/ha ([13]; 125 g ai/ha) of 10%, a pest or weed control at 500 g/ha ([13]; 500 g ai/ha) of 30% and a pest or weed control at 125 g/ha ([14]; 125 g ai/ha) of 20%. The pest or weed control at 500 g/ha ([14]; 500 g ai/ha) was 90%, the plant injury at 125 g/ha ([15]; 125 g ai/ha) was 20% and the plant injury at 500 g/ha ([15]; 500 g ai/ha) was 20%. For the same compound, the pest or weed control at 125 g/ha ([16]; 125 g ai/ha) was 10%, the pest or weed control at 500 g/ha ([16]; 500 g ai/ha) was 30% and the pest or weed control at 16 g/ha ([17]; 16 g ai/ha, scale 0 to 100) was 10%. It also gave a pest or weed control at 31 g/ha ([17]; 31 g ai/ha, scale 0 to 100) of 15%, a pest or weed control at 62 g/ha [17, 20] of 25% and a pest or weed control at 125 g/ha [17, 21] of 25%. It also gave a pest or weed control at 16 g/ha ([18]; 16 g ai/ha, scale 0 to 100) of 5%, a pest or weed control at 31 g/ha ([18]; 31 g ai/ha, scale 0 to 100) of 10% and a pest or weed control at 62 g/ha [18, 20] of 20%. It also gave a pest or weed control at 125 g/ha [18, 21] of 20%, a pest or weed control at 16 g/ha ([19]; 16 g ai/ha, scale 0 to 100) of 0% and a pest or weed control at 31 g/ha ([19]; 31 g ai/ha, scale 0 to 100) of 0%. For the same compound, the pest or weed control at 62 g/ha [19, 20] was 0% and the pest or weed control at 125 g/ha [19, 21] was 5%.

Source: patent publication US11053204B2, “Pyrimidinyloxy benzene derivatives as herbicides” (FMC Corporation, priority 2015, dated 2021)
